Where no end group is shown, it is not given here.
Columns and labels:
FLS2 (FLS2-ECD) = test: Yeast two-hybrid with FLS2-ECD; type: binding, Arabidopsis thaliana; details: yeast AH109, medium lacking Leu, Trp, His
Source text: (§1) Fig 6 AtRALF1 interacts physically with BAK1 protein. (A) The active AtRALF1 peptide interacts with the extracellular domain (ECD) of BAK1 (BAK1-ECD) in yeast. The AtRALF1 protein fused to the GAL4 DNA-binding domain (AtRALF1-pGBKT7) was used as bait to test its interaction with the extracellular domain of the proteins fused to the GAL4 activation domain (pGADT7): BAK1 (BAK1-ECD), BAK7 (BAK7-ECD), BRI1 (BRI1-ECD) and FLS2 (FLS2-ECD). (B) Blueprint showing the truncated proteins from the extracellular domain of BAK1 tested in the two-hybrid assay. The extracellular domain of BAK1 comprises leucine zippers (LZ), 5 leucine rich-regions (LRRs) and a proline-rich region (pro-rich). (C) AtRALF1-pGBKT7 was used as bait to test its interaction with truncated proteins fused to the GAL4 activation domain (pGADT7). […] HA-BAK1-ECD was detected with an anti-HA antibody. AtRALF1 was detected with an anti-RALF antibody. […] BAK1-GFP was detected with an anti-GFP antibody. […]
(§2) The coding regions of the mature peptides AtRALF1 and AtRALF34 were amplified from Arabidopsis genomic DNA and fused to the GAL4 DNA-binding domain and the MYC epitope tag using the NdeI/BamHI sites in the pGBKT7 (Clontech) vector. […] The proteins fused to the HA and MYC epitope tags were detected by protein blotting. […]

BAK1 = BAK1 phosphorylation assay, anti-phosphothreonine; type: in vivo, Arabidopsis thaliana; details: 20 min
Protocol: Transgenic plants pBAK1:BAK1-6xHA were grown in vertical plates for 10–15 days. The plants were treated with 0.1 μM BL, 2 μM RALF1(9–49), 1 μM, 2 μM or 10 μM AtRALF1 for 20 min. The roots were isolated, and the microsomal fractions were obtained as described above. The microsomal fractions were incubated with anti-HA beads (EZview Red Anti-HA Affinity Gel, Sigma) for 2 h at 4 °C to immunoprecipitate the BAK1 protein. The unbound materials were removed by washing 3 times. Proteins were separated by SDS/PAGE and further analyzed by protein blotting using anti-HA (Thermo Scientific), or anti-phosphothreonine (Novus Biologicals), or anti-phosphoserine (Novus Biologicals) antibodies.

[1] = system: Arabidopsis seedlings, primary root; details: ref [10], cited from earlier work
Source text: FERONIA (FER), a receptor-like kinase with an extracellular malectin-like domain, has been identified as the receptor of the root-specific isoform AtRALF1 [10]. LORELEI (LRE) and LRE-like GPI-AP1 (LLG1) are two glycosylphosphatidylinositol-anchored proteins found in ovules and vegetative tissues, respectively, that physically interact with FER and are required for FER delivery to the cell membrane and FER signaling. […] In a search for putative genetic components that might be shared by both the AtRALF1 and BR signaling pathways, we tested mutants lacking different components of the BR signaling pathway in root growth assays with inhibitory concentrations of the AtRALF1 peptide. […] A previous study in which 18 receptor-like proteins were tested in root g ...

BAK7 (BAK7-ECD) = test: Yeast two-hybrid with BAK7-ECD; type: binding, Arabidopsis thaliana; details: yeast AH109, medium lacking Leu, Trp, His
Source text: as §1, §2

[2] = system: Arabidopsis seedlings, rhizosphere; test: Rhizosphere alkalinization, gel with pH indicator bromocresol purple; type: in vivo, Arabidopsis thaliana; details: wild-type and bak1 seedlings, 10 μM, 30 min, pH 5.7
Protocol: To analyze the rhizosphere alkalinization, seedlings were grown in plates for 7 days. To avoid damage to the roots, the medium was solidified with 12 g l^-1 Phytagel. Seedlings were transferred to plates containing the pH indicator bromocresol purple (pH 5.7) as described previously and treated with 10 μM AtRALF1 or water. Images were captured 30 min after transfer onto the gel indicator. The experiments were repeated at least three times using independent biological replicates. The data shown are from one representative experiment.

Substance: AtRALF1: root-specific RALF isoform in Arabidopsis; recombinant peptide hormone produced in E. coli (ATTKYISYQSLKRNSVPCSRRGASYYNCQNGAQANPYSRGCSKIARCRS; ends and bridges not checked; cysteine pairing not given here)
- interaction with FLS2-ECD (Y2H complementation) (FLS2 (FLS2-ECD)): able to complement only the BAK1-ECD construct
- further increase of BAK1 Thr phosphorylation (BAK1; 10 μM): did not result in further increases in phosphorylation
- upper concentration of dose-dependent BAK1 Thr phosphorylation (BAK1; pBAK1:BAK1-HA roots): up to 2 μM
- BAK1 phosphorylation in threonine residues (BAK1; pBAK1:BAK1-HA roots, AtRALF1 1, 2, 10 μM, BL 0.1 μM): increase in BAK1 phosphorylation in the threonine residues similar to the increase resulting from the treatment of the seedlings with BL
- root growth inhibition, sensitivity of fer4 ([1]; FERONIA mutant fer4, low concentrations): insensitive to low concentrations of the AtRALF1 peptide
- root growth inhibition ([1]; bak1-4 mutant, 1 μM): the roots of the bak1-4 mutant were inhibited by the peptide
- interaction with BAK7-ECD (Y2H complementation) (BAK7 (BAK7-ECD)): able to complement only the BAK1-ECD construct
- rhizosphere coloration (alkalinization) [2]: developed a purple coloration around the rhizosphere

Source: article PMC5656322, “BAK1 is involved in AtRALF1-induced inhibition of root cell expansion” (PLoS Genetics, 2017)
